Measurements from ChEMBL document CHEMBL1201862, “PubChem BioAssay data set” (2004).
Active and inactive are the calls of the source.

What was measured:
[1] = biological target: T1, Sentrin-specific protease 6 (Homo sapiens, UniProt Q9GZR1); type: functional;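 further: Luminescence-based dose-response confirmatory assay of SENP6 inhibition, following up an ultra-high-throughput screen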
T1 sequence (Q9GZR1 whole entry): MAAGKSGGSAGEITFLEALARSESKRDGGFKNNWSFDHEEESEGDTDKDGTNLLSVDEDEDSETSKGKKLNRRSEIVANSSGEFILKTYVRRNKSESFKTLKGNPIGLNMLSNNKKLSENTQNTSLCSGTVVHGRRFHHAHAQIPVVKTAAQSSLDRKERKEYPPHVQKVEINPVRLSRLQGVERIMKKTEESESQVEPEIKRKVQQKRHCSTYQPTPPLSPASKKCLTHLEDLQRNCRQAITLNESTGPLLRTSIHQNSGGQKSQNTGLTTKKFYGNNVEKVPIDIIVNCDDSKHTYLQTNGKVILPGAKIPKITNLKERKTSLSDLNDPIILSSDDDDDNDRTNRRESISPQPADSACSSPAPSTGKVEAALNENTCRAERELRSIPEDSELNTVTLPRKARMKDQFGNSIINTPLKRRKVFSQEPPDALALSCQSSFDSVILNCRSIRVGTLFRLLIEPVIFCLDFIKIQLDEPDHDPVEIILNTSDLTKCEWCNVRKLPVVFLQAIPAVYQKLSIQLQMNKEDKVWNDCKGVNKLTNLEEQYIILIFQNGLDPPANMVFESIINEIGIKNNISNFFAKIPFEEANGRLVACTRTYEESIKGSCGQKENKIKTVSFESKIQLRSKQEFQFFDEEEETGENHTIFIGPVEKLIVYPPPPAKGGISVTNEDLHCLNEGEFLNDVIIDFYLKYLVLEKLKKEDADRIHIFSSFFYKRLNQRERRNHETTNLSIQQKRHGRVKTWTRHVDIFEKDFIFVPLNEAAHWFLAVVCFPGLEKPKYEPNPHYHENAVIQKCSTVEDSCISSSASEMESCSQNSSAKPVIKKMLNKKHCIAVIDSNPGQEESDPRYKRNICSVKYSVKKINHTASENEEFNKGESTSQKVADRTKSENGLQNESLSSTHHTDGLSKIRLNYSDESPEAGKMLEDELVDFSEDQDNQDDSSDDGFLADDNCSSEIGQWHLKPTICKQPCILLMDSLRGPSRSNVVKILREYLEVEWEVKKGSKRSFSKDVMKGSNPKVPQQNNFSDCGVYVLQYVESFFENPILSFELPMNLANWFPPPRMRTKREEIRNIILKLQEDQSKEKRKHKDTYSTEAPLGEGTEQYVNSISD

Streptokinase A = biological target: T2, Streptokinase A (Streptococcus pyogenes serotype M1, UniProt P10520); assay: viability-normalized secreted streptokinase activity reduction – plasminogen activation absorbance, OD405, dose response (AID 1914); type: functional, Streptococcus pyogenes M1 GAS;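 further: secreted streptokinase activity via plasminogen activation per viability signal from cell pellet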
T2 sequence (P10520 whole entry): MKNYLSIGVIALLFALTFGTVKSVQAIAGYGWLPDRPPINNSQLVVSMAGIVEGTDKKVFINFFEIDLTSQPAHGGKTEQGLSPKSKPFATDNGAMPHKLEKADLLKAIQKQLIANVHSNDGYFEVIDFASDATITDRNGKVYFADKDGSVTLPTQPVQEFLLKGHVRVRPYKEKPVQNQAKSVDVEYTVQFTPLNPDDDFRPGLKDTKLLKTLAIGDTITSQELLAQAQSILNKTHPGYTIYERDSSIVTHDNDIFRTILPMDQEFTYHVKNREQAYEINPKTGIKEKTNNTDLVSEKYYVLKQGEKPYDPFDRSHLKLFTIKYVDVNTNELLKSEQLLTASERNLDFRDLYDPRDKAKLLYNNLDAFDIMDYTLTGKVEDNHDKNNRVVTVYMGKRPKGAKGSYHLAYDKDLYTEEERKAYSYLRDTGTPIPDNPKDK

[2] = biological target: Macrophage colony-stimulating factor 1 receptor (Homo sapiens, UniProt P07333); type: functional;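 further: value comes from the Navigating the Kinome screening panel, CSF1R member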
[3] = biological target: Hepatocyte growth factor receptor (Homo sapiens, UniProt P08581); type: functional;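 further: kinase panel profiling across the kinome, with MET as the panel member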
[4] = biological target: Vascular endothelial growth factor receptor 1 (Homo sapiens, UniProt P17948); type: functional;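 further: measured within a kinome-wide profiling panel, FLT1 as the panel member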
[5] = biological target: Fibroblast growth factor receptor 1 (Homo sapiens, UniProt P11362); type: functional
[6] = biological target: Mitogen-activated protein kinase 9 (Homo sapiens, UniProt P45984); type: functional;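 further: value from a kinome panel profiling assay, MAPK9 panel entry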
[7] = biological target: Mitogen-activated protein kinase 8 (Homo sapiens, UniProt P45983); type: functional;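 further: value comes from one member of a kinome-wide kinase profiling panel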
[8] = biological target: Glycogen synthase kinase-3 alpha (Homo sapiens, UniProt P49840); type: functional;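 further: GSK3A result taken from a broad kinome-wide kinase panel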
[9] = biological target: BDNF/NT-3 growth factors receptor (Homo sapiens, UniProt Q16620); type: functional;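 further: NTRK2 measured as one member of a broad kinome-wide kinase profiling panel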
[10] = biological target: Tyrosine-protein kinase BTK (Homo sapiens, UniProt Q06187); type: functional
[11] = biological target: Tyrosine-protein kinase receptor TYRO3 (Homo sapiens, UniProt Q06418); type: functional;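 further: TYRO3 value obtained as one member of a kinome-wide profiling panel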
[12] = biological target: Proto-oncogene tyrosine-protein kinase receptor Ret (Homo sapiens, UniProt P07949); type: functional;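 further: measured within a kinome-wide profiling panel, RET as the panel member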
[13] = biological target: ALK tyrosine kinase receptor (Homo sapiens, UniProt Q9UM73); type: functional;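 further: ALK tested as one member of a kinase panel screen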

Glycogen synthase kinase-3 alpha, sequence (P49840 whole entry): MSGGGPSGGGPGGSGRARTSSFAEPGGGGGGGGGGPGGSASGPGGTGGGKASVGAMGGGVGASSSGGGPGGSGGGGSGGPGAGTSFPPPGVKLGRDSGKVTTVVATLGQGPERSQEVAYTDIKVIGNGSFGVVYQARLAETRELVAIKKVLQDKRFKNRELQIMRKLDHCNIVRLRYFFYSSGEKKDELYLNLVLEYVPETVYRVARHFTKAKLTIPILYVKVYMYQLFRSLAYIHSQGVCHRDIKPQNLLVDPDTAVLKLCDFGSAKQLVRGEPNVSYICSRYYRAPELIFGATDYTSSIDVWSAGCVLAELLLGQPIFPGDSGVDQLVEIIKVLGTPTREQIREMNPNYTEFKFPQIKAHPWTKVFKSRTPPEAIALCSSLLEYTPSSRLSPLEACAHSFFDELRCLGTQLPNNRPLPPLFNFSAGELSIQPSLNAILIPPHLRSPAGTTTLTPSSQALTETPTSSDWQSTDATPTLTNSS
Vascular endothelial growth factor receptor 1, sequence (P17948 whole entry): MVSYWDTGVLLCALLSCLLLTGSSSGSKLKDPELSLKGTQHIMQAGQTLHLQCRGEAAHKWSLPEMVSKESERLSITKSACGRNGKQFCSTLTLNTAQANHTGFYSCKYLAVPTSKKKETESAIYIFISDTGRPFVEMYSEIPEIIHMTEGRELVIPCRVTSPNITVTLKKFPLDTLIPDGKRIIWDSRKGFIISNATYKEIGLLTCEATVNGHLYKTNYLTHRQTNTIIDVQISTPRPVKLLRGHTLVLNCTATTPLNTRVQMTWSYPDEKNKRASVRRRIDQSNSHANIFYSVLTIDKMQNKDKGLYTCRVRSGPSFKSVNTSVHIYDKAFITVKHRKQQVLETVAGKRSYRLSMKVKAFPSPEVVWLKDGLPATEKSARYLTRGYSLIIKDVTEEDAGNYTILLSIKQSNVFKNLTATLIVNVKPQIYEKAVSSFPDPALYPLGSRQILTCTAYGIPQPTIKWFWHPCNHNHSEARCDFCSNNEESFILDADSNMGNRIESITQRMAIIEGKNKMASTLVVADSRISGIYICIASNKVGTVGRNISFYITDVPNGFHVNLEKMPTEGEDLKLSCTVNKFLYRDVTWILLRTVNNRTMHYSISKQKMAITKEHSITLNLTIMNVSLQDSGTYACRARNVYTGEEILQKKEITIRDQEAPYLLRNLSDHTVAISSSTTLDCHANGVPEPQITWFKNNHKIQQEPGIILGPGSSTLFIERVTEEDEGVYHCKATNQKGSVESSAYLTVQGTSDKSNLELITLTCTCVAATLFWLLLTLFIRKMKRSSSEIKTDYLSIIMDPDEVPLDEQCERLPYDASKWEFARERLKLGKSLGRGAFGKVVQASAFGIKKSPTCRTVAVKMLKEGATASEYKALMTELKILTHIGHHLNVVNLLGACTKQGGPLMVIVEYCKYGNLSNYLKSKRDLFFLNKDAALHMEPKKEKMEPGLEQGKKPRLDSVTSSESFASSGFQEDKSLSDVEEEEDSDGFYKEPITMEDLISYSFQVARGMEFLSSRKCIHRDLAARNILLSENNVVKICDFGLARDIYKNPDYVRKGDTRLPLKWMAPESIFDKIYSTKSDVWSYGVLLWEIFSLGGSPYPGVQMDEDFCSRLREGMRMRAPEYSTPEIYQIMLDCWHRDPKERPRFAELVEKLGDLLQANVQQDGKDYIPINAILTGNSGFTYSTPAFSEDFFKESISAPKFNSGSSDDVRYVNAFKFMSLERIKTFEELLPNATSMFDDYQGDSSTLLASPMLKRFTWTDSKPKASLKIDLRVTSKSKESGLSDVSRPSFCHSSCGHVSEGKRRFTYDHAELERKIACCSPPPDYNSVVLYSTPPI
Tyrosine-protein kinase BTK, sequence (Q06187 whole entry): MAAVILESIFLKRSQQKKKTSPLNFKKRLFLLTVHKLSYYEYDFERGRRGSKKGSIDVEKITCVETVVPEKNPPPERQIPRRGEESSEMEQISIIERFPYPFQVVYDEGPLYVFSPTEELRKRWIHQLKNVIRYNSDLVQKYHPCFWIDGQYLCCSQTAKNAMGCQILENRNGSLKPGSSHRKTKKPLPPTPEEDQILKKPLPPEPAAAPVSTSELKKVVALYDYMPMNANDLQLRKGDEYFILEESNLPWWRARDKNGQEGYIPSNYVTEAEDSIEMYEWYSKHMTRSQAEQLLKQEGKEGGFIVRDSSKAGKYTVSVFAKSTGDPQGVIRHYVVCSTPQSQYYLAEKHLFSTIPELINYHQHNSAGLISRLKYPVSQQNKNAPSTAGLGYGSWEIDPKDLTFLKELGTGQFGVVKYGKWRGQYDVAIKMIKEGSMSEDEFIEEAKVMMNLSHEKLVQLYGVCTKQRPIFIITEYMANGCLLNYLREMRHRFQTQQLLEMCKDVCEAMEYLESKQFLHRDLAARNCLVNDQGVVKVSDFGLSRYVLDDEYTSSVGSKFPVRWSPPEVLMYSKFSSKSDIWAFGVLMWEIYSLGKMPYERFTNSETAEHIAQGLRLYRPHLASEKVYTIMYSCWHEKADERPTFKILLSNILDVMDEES
Tyrosine-protein kinase receptor TYRO3, sequence (Q06418 whole entry): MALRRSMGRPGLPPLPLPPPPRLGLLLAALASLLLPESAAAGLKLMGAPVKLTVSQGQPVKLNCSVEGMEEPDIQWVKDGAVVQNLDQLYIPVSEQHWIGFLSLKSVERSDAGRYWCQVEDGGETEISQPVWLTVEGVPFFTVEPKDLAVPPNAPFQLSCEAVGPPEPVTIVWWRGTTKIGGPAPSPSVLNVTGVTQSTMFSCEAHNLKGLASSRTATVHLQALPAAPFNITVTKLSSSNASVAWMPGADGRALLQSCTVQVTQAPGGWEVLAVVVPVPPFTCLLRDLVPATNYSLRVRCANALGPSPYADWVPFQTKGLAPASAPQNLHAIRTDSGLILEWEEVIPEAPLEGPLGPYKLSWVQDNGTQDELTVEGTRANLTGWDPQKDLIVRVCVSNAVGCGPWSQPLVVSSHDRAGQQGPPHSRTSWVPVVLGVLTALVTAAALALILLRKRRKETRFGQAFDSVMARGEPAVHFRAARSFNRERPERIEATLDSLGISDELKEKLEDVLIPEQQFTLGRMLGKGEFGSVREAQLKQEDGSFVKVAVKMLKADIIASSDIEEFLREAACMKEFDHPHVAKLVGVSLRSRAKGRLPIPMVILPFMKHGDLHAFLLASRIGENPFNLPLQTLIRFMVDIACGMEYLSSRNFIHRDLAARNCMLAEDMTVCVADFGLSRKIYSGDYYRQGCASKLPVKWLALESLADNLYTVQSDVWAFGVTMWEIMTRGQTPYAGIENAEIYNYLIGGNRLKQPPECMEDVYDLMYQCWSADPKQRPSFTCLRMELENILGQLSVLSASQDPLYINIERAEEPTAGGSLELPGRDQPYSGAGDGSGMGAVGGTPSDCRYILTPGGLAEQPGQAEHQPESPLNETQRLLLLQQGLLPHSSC
Fibroblast growth factor receptor 1, sequence (P11362 whole entry): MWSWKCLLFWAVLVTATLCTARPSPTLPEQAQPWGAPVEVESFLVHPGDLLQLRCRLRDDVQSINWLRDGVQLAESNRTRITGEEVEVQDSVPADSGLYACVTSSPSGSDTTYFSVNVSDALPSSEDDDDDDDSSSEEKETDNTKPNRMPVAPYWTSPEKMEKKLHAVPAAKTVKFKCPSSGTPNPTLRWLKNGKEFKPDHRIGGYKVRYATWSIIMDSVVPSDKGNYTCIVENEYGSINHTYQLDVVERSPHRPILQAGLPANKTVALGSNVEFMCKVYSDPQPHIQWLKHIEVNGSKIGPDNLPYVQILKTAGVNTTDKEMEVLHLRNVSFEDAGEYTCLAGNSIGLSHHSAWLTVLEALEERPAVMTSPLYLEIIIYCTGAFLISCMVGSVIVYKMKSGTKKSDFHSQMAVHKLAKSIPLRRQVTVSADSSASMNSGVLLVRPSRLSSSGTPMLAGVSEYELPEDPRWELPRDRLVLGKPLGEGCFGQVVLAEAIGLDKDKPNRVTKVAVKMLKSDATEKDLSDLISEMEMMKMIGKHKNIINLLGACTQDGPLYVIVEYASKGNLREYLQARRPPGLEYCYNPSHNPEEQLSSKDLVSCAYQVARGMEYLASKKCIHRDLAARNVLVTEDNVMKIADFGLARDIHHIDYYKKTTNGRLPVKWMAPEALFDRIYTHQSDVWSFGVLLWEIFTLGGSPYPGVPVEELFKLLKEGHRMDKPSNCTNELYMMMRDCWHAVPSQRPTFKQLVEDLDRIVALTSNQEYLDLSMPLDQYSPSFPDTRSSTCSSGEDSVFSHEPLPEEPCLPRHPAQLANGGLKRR
Mitogen-activated protein kinase 8, sequence (P45983 whole entry): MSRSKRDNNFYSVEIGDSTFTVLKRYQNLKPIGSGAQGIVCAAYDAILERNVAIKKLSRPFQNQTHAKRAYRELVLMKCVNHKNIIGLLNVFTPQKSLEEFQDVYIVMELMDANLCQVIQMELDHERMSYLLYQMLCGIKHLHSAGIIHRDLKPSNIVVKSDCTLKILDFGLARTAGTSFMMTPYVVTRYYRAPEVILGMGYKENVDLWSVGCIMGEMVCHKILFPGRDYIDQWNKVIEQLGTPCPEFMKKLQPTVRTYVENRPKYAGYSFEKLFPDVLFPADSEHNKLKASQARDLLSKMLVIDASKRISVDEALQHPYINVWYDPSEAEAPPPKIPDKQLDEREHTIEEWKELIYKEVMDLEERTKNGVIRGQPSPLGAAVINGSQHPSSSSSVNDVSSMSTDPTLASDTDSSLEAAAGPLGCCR
Mitogen-activated protein kinase 9, sequence (P45984 whole entry): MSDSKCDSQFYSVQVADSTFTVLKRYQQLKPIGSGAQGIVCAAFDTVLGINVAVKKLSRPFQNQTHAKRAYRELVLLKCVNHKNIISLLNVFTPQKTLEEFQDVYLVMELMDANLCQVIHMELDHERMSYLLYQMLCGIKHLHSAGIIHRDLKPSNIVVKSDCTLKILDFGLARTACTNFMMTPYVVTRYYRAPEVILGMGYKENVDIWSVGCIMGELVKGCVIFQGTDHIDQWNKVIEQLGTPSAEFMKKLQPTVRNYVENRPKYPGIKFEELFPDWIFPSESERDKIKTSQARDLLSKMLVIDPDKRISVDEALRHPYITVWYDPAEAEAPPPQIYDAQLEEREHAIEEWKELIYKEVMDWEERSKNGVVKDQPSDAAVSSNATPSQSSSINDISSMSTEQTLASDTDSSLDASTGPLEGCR

Row | Compound | IC50 [1] | EC50 (Streptokinase A) | Ki [2] | Ki [3] | Ki [4] | Ki [5] | Ki [6] | Ki [7] | Ki [8] | Ki [9] | Ki [10] | Ki [11] | Ki [12] | Ki [13]
1 | Cc1cc(C)c[n+](C2=C([N-]S(=O)(=O)c3cccs3)C(=O)c3ccccc3C2=O)c1 | 15.1 µM (active) | > 150 µM (not active) | – | – | – | – | – | – | – | – | – | – | – | –
2 | CCCCCCCCCCC[N+](C)(C)CC/C=C1/c2ccccc2Sc2ccc(Cl)cc21 | – | 8.22 µM (active) | – | – | – | – | – | – | – | – | – | – | – | –
3 | CCn1c(-c2nonc2N)nc2cncc(C(=O)N3CCC(N)C3)c21 (stereo not drawn) | – | – | > 2.51 µM (inactive) | > 2.51 µM (inactive) | > 3.98 µM (inactive) | > 3.98 µM (inactive) | > 3.98 µM (inactive) | > 5.01 µM (inactive) | 0.398 µM (active) | > 3.98 µM (inactive) | > 6.31 µM (inactive) | > 3.16 µM (inactive) | > 3.16 µM (inactive) | > 6.31 µM (inactive)
4 | Cc1[nH]nc2ccc(-c3cncc(OCC(N)Cc4c[nH]c5ccccc45)c3)cc12 (stereo not drawn) | – | – | > 2.51 µM (inactive) | > 3.16 µM (inactive) | > 0.398 µM (inactive) | 3.16 µM (active) | 2 µM (active) | 1.58 µM (active) | 0.126 µM (active) | > 5.01 µM (inactive) | > 1.26 µM (inactive) | > 2 µM (inactive) | > 1.26 µM (inactive) | > 1.26 µM (inactive)
5 | COC(=O)c1ccccc1NC1=C/C(=N\S(=O)(=O)c2cccs2)c2ccccc2C1=O | 1.86 µM (active) | – | – | – | – | – | – | – | – | – | – | – | – | –
